The values below come from patent US20230223113A1, “Methods and Systems for Rapid Antimicrobial Susceptibility Tests” (The Regents of the University of California, priority 2020, published 2023).

Experiment [1] deals with Pseudomonas aeruginosa (strain PA14 wild type). The experiment in a line: Dose-response growth curves (OD600 after 24 h) to identify the minimum inhibitory concentration. It counts as cell-based. To be noted: for MIC: Pseudomonas aeruginosa, P. aeruginosa PA14, the stated concentration is 'just below' the MIC. How it is done:
(§1) Optical density at 600 nm (OD600) to identify the minimum inhibitory concentration (MIC) of A) carbenicillin, B) rifampicin, and C) gentamicin for Pseudomonas aeruginosa, and D) gentamicin for Escherichia coli in accordance with an embodiment is illustrated in FIGS. 5A-5D. The P. aeruginosa strain, PA14 used in some embodiments has differing susceptibility to carbenicillin [+C] and rifampicin [+R]. Several embodiments refer to the antibiotic treatments that are performed with 50 μg/mL and 400 μg/mL of carbenicillin and rifampicin, respectively as the AST dataset. These concentrations are just below the respective minimum inhibitory concentrations (MICs) for these antibiotics in P. aeruginosa, as shown in FIGS. 5A and 5B. OD600 of a P. aeruginosa cell culture at indicated growth times after adjustment to OD at 0.5 at 0 h, A) without antibiotic treatment, B) with 50 μg/mL carbenicillin introduced at 0 h, and C) with 400 μg/mL rifampicin introduced at 0 h in accordance with an embodiment of the invention is illustrated in FIGS. 6A-6C.
Pseudomonas aeruginosa (strain PA14 wild type) and Escherichia coli (strain MC4100, K-12, F-araD139Δ(argF-lac)U169 rspL150 relA1 fIbB5301 fruA25 deoC1 ptsF25) cultures were obtained by first streaking from a frozen culture stock onto LB Lennox agar (IBI Scientific) plates and incubated at 37° C. for 24 h. Individual colonies from these plates were used to inoculate 100 mL of LB in triplicate, and subsequently grown for 18 h at 37° C. and shaking at 230 rpm. The 18 h cultures were centrifuged at 5000 rpm for 5 minutes, then resuspended in fresh LB to reach an optical density at 600 nm (OD600) of 0.50 as measured by a BioChrom Colourwave CO7500 Colorimeter.
Dose-Response Curves: Carbenicillin disodium salt, gentamicin sulfate, and rifampicin stock solutions were prepared to a final concentration of 10 mg/mL in water for the former two and 20% (v/v) DMSO/H2O for the latter. These stock solutions were added into 180 μL of E. coli or P. aeruginosa resuspension in a 96-well plate such that 9 separate 10-fold dilutions of each antibiotic starting at 1000 μg/mL were achieved. Vehicle controls using pure water for carbenicillin and gentamicin and 20% (v/v) DMSO/H2O for rifampicin were also created in the same 96-well plate. These plates were then incubated at 37° C. for 24 h with 230 rpm shaking, after which OD600 measurements were taken with a SpectraMax M2 Plate Reader.

Experiment [2] concerns P. aeruginosa cell culture. Description: OD600 of cell culture over time of antibiotic exposure after adjustment to OD 0.5. Format: cell-based, Pseudomonas aeruginosa. The settings on record: 50 μg/mL carbenicillin, about 2 hour exposure. The protocol: as §1, with “OD600 of a P. aeruginosa cell culture at indicated growth times after adjustment to OD at 0.5 at 0 h, A) without antibiotic treatment, B) with 50 μg/mL carbenicillin introduced at 0 h, and C) with 400 μg/mL rifampicin introduced at 0 h in accordance with an embodiment of the invention is illustrated in FIGS. 6A-6C.” left out
Pseudomonas aeruginosa (strain PA14 wild type) and Escherichia coli (strain MC4100, K-12, F-araD139Δ(argF-lac)U169 rspL150 relA1 fIbB5301 fruA25 deoC1 ptsF25) cultures were obtained by first streaking from a frozen culture stock onto LB Lennox agar (IBI Scientific) plates and incubated at 37° C. for 24 h. […] The 18 h cultures were centrifuged at 5000 rpm for 5 minutes, then resuspended in fresh LB to reach an optical density at 600 nm (OD600) of 0.50 as measured by a BioChrom Colourwave CO7500 Colorimeter. […]

The test system of another experiment is P. aeruginosa lysate. The experiment in a line: SERS spectra of cell lysate after antibiotic exposure, VAE latent space analysis. Format: cell-based, Pseudomonas aeruginosa. How it is done: The VAE space from analysis of the AST dataset in accordance with many embodiments provide clustering of the different treatment classes. VAE space of AST spectra from untreated [−−] P. aeruginosa lysate (0.5 h/2 h), 50 μg/mL carbenicillin treated [+C] P. aeruginosa lysate (0.5 h/2 h), 400 μg/mL rifampicin treated [+R] P. aeruginosa lysate (0.5 h/2 h) in accordance with an embodiment of the invention is illustrated in FIG. 7A. […] Some embodiments provide that larger relative VAE 1 values can be observed for 30 minute treatment times for all treatment classes as compared to 2 hour exposure. This is consistent with OD600 measurements indicating cell recovery after 2 hour in FIGS. 6A-6C.
Many embodiments provide VAE performance on differentiating spectra from multiple bacterial species, a different antibiotic, time points, and dosages. SERS spectra from cellular lysate with varying dose and temporal response of P. aeruginosa and E. coli when exposed to gentamicin are analyzed similarly as the AST dataset in several embodiments. When analyzing the SERS spectra from E. coli and P. aeruginosa with the VAE method, differentiation of P. aeruginosa lysate data at concentrations at about 0.1 μg/mL, an order of magnitude below the MIC, can be observed in accordance with some embodiments. […]

In the next experiment the test system is E. coli lysate. Described as above. It counts as cell-based, Escherichia coli. How it is done:
Many embodiments provide VAE performance on differentiating spectra from multiple bacterial species, a different antibiotic, time points, and dosages. SERS spectra from cellular lysate with varying dose and temporal response of P. aeruginosa and E. coli when exposed to gentamicin are analyzed similarly as the AST dataset in several embodiments. When analyzing the SERS spectra from E. coli and P. aeruginosa with the VAE method, differentiation of P. aeruginosa lysate data at concentrations at about 0.1 μg/mL, an order of magnitude below the MIC, can be observed in accordance with some embodiments. FIG. 9A illustrates VAE latent space analysis of SERS spectra of dose response of P. aeruginosa with analysis of 0, 0.1, 0.5, 1, and 10 μg/mL gentamicin dosed lysate respectively in accordance with an embodiment. In several embodiments, lysate from P. aeruginosa exposed to 10 μg/mL gentamicin (10×MIC) can be analyzed with VAE method and differentiated from control data in the VAE space at about 20 minute after initial exposure. The short temporal response time in accordance with some embodiments is much earlier than reported 2 hour response time for SERS AST. FIG. 9B illustrates VAE latent spaces of temporal response of P. aeruginosa with lysate processed after 0, 5, 10, 20, and 40 minutes of 10 μg/mL gentamicin dosage respectively in accordance with an embodiment. […]

Counter-ions that a name gives are not always drawn.

As a reminder, the MIC is the lowest concentration that inhibits growth of the organism. Turning to `CC1(C)S[C@@H]2[C@H](NC(=O)C(C(=O)O)c3ccccc3)C(=O)N2[C@H]1C(=O)O` (stereo partly drawn) [carbenicillin, Carbenicillin disodium salt], the MIC in experiment [1] is > 50 µg/mL. Further, the “growth inhibition over the time of exposure (OD600)” value in experiment [2] is “does not exhibit any significant growth inhibition”.
With `CO[C@H]1/C=C/O[C@@]2(C)Oc3c(C)c(O)c4c(O)c(c(/C=N/N5CCN(C)CC5)c(O)c4c3C2=O)NC(=O)/C(C)=C\C=C\[C@H](C)[C@H](O)[C@@H](C)[C@@H](O)[C@@H](C)[C@H](OC(C)=O)[C@@H]1C` [rifampicin], in experiment [1], the minimal inhibitory concentration (MIC) was > 400 µg/mL.
gentamicin sulfate: the “dose as a multiple of the MIC” value in experiment [1] (10 μg/mL gentamicin, P. aeruginosa) worked out at 10 ×MIC. The “resistance of P. aeruginosa (from growth curves, FIGS. 5A-5D)” value in experiment [1] (P. aeruginosa) was “evident resistance”. For the same compound, in the experiment on P. aeruginosa lysate (10 μg/mL gentamicin), the “time after initial exposure at which lysate is differentiated from control in VAE space” value is reported as “about 20 minute”. Also, the “antibiotic concentration at which lysate data are differentiated from control in VAE space” value in the experiment with P. aeruginosa lysate (gentamicin dose response 0, 0.1, 0.5, 1, 10 μg/mL, an order of magnitude below the MIC) is on record as “about 0.1 μg/mL”. Further, the “time after initial exposure at which discernable clustering appears in VAE space” value in the experiment with E. coli lysate (10 μg/mL gentamicin) is reported as “about 10 minute”. Also, in the experiment with E. coli lysate (gentamicin dose response 0, 0.1, 0.5, 1, 10 μg/mL), the “antibiotic concentration at which lysate data are differentiated from control treatment in VAE space” value is ≤ 0.1 µg/mL.
